Key:
Assay type in all cases: cell-based
Conditions in all cases: 18 hours incubation
[1] = test system: Clostridium difficile ATCC 17858; assay: In vitro antibacterial activity, standard agar dilution (MIC)
[2] = test system: Streptococcus pneumoniae K 84-21; assay: as above
[3] = test system: Streptococcus b-hemolyticus VGH 84-62; assay: as above
[4] = test system: Peptococcus asaccharolyticus ATCC 29743; assay: as above
[5] = test system: Clostridium perfringens ATCC 13124
[6] = test system: Bacteroides vulgaris ATCC 29327; assay: In vitro antibacterial activity, standard agar dilution (MIC)
[7] = test system: Streptococcus b-hemolyticus C 203; assay: as above
[8] = test system: Streptococcus b-hemolyticus VGH 84-60; assay: as above
[9] = test system: Streptococcus pneumoniae SV-1; assay: as above
[10] = test system: Streptococcus b-hemolyticus VGH 0.5; assay: as above
[11] = test system: Peptococcus magnus ATCC 14956; assay: as above
[12] = test system: Peptococcus magnus ATCC 29328; assay: as above

C/C=C\C=C\C1OC(O)(C(CNC(=O)Cc2ccccc2)C(=O)NC/C=C/C=C(\C)C(OC)C(C)C2CC(O)C(/C=C/C=C/C=C/C(=O)O)O2)C(O)C(O)C1(C)C (stereo not drawn) [Compound I, Ammonolysis Product of LL-E19020 α and β]
Minimal Inhibitory Concentration [1]: 4 µg/mL | Minimal Inhibitory Concentration [2]: > 128 µg/mL | Minimal Inhibitory Concentration [3]: 16 µg/mL | Minimal Inhibitory Concentration [4]: 0.25 µg/mL | Minimal Inhibitory Concentration [5]: > 128 µg/mL | Minimal Inhibitory Concentration [6]: 128 µg/mL | Minimal Inhibitory Concentration [7]: 8 µg/mL | Minimal Inhibitory Concentration [8]: 4 µg/mL | Minimal Inhibitory Concentration [9]: 64 µg/mL | Minimal Inhibitory Concentration [10]: 16 µg/mL | Minimal Inhibitory Concentration [11]: ≤ 0.06 µg/mL | Minimal Inhibitory Concentration [12]: 0.25 µg/mL

Aglycone Methyl Ester of LL-E19020β [Compound VI]
Minimal Inhibitory Concentration [2]: > 128 µg/mL | Minimal Inhibitory Concentration [3]: > 128 µg/mL | Minimal Inhibitory Concentration [4]: 0.5 µg/mL | Minimal Inhibitory Concentration [5]: > 128 µg/mL | Minimal Inhibitory Concentration [6]: > 128 µg/mL | Minimal Inhibitory Concentration [7]: > 128 µg/mL | Minimal Inhibitory Concentration [8]: > 128 µg/mL | Minimal Inhibitory Concentration [9]: > 128 µg/mL | Minimal Inhibitory Concentration [10]: > 128 µg/mL | Minimal Inhibitory Concentration [11]: 0.5 µg/mL | Minimal Inhibitory Concentration [12]: 0.5 µg/mL

Methyl Ester of LL-E19020α [Compound II]
Minimal Inhibitory Concentration [1]: 2 µg/mL | Minimal Inhibitory Concentration [2]: 8 µg/mL | Minimal Inhibitory Concentration [3]: 2 µg/mL | Minimal Inhibitory Concentration [4]: ≤ 0.06 µg/mL | Minimal Inhibitory Concentration [5]: 64 µg/mL | Minimal Inhibitory Concentration [6]: 128 µg/mL | Minimal Inhibitory Concentration [7]: 0.12 µg/mL | Minimal Inhibitory Concentration [8]: 0.5 µg/mL | Minimal Inhibitory Concentration [9]: 4 µg/mL | Minimal Inhibitory Concentration [10]: 2 µg/mL | Minimal Inhibitory Concentration [11]: ≤ 0.06 µg/mL | Minimal Inhibitory Concentration [12]: ≤ 0.06 µg/mL

Methyl Ester of LL-E19020β [Compound III]
Minimal Inhibitory Concentration [1]: 8 µg/mL | Minimal Inhibitory Concentration [2]: 32 µg/mL | Minimal Inhibitory Concentration [3]: 8 µg/mL | Minimal Inhibitory Concentration [4]: ≤ 0.06 µg/mL | Minimal Inhibitory Concentration [5]: > 128 µg/mL | Minimal Inhibitory Concentration [6]: 16 µg/mL | Minimal Inhibitory Concentration [7]: 2 µg/mL | Minimal Inhibitory Concentration [8]: 2 µg/mL | Minimal Inhibitory Concentration [9]: 8 µg/mL | Minimal Inhibitory Concentration [10]: 8 µg/mL | Minimal Inhibitory Concentration [11]: ≤ 0.06 µg/mL | Minimal Inhibitory Concentration [12]: ≤ 0.06 µg/mL

Monosaccharide of Methyl Ester of LL-E19020α [Compound IV]
Minimal Inhibitory Concentration [1]: 8 µg/mL | Minimal Inhibitory Concentration [2]: 16 µg/mL | Minimal Inhibitory Concentration [3]: 8 µg/mL | Minimal Inhibitory Concentration [4]: ≤ 0.06 µg/mL | Minimal Inhibitory Concentration [5]: > 128 µg/mL | Minimal Inhibitory Concentration [6]: > 128 µg/mL | Minimal Inhibitory Concentration [7]: 4 µg/mL | Minimal Inhibitory Concentration [8]: 2 µg/mL | Minimal Inhibitory Concentration [9]: 16 µg/mL | Minimal Inhibitory Concentration [10]: 8 µg/mL | Minimal Inhibitory Concentration [11]: ≤ 0.06 µg/mL | Minimal Inhibitory Concentration [12]: ≤ 0.06 µg/mL

Monosaccharide of Methyl Ester of LL-E19020β [Compound V]
Minimal Inhibitory Concentration [1]: 64 µg/mL | Minimal Inhibitory Concentration [2]: 64 µg/mL | Minimal Inhibitory Concentration [3]: 32 µg/mL | Minimal Inhibitory Concentration [4]: ≤ 0.06 µg/mL | Minimal Inhibitory Concentration [5]: > 128 µg/mL | Minimal Inhibitory Concentration [6]: > 128 µg/mL | Minimal Inhibitory Concentration [7]: 8 µg/mL | Minimal Inhibitory Concentration [8]: 8 µg/mL | Minimal Inhibitory Concentration [9]: 32 µg/mL | Minimal Inhibitory Concentration [10]: 32 µg/mL | Minimal Inhibitory Concentration [11]: ≤ 0.06 µg/mL | Minimal Inhibitory Concentration [12]: ≤ 0.06 µg/mL

— US5077277A, “Chemical derivatives of antibiotics LL-E19020 alpha and beta” (American Cyanamid Company, priority 1989, dated 1991)
